According to patent US6355799B1, “Substituted benzene compounds, process for their preparation, and herbicidal and defoliant compositions containing them” (ISK Americas Incorporated, priority 1997, dated 2002):

Tests used:
Format in all cases: in vivo
[1] = tested on: redroot pigweed (Amaranthus retroflexus, AMARE); assay: Pre-emerge test, greenhouse herbicide activity screening; conditions: rating scale 0-100, 14 days after application
Summary of the method: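 Sandy loam pots; pre-emerge: sown 1 d pre-spray, surface-watered after, then bottom-watered. Post-emerge: sown 8–21 d before, 2–3 leaf stage, + 0.25% v/v NIS, bottom-watered. Acetone, 187 l/ha track spray, 15–1000 g ai/ha. 0–100 injury score, day 14.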

[2] = tested on: upland rice (Oryza sp., var. Tebonnet, RICE); assay: Post-emerge test, crop safety; conditions: rating scale 0-100 (0 no damage, 100 complete death), 14 days after application
Summary of the method: (§1)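 Fourteen days after spraying, crop and weed injury was graded visually from 0, no effect, to 100, every plant dead. Test substances were dissolved in acetone and applied at 15–1000 g ai/ha with a flat-fan nozzle. Application was either pre-emergence, one day after sowing, or post-emergence at the 2–3 leaf stage.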

[3] = tested on: field corn (Zea mays L., var. Dekalb 535, CORN); assay: Post-emerge test, crop safety; conditions: rating scale 0-100 (0 no damage, 100 complete death), 14 days after application
Summary of the method: as §1

[4] = tested on: upland rice (Oryza sp., var. Tebonnet, RICE); assay: Pre-emerge test, crop safety; conditions: rating scale 0-100, 14 days after application
Summary of the method: (§2)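 Compounds in acetone were track-sprayed at 15-1000 g ai/ha (187 l/ha) on sandy loam pots: pre-emerge one day after seeding, post-emerge at 2-3 leaf stage with 0.25% v/v non-ionic surfactant. Phytotoxicity was rated 14 days later on a 0 (no damage) to 100 (complete death) scale.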

[5] = tested on: field corn (Zea mays L., var. Dekalb 535, CORN); assay: Pre-emerge test, crop safety; conditions: rating scale 0-100, 14 days after application
Summary of the method: as §2

[6] = tested on: velvetleaf (Abutilon theophrasti, ABUTH); assay: Pre-emerge test, greenhouse herbicide activity screening; conditions: rating scale 0-100, 14 days after application
Summary of the method: as §1

[7] = tested on: ivyleaf morningglory (Ipomoea hederacea, IPOHE); assay: as above; conditions: rating scale 0-100, 14 days after application
Summary of the method: as §1

[8] = tested on: green foxtail (Setaria viridis, SETVI); assay: as above; conditions: rating scale 0-100, 14 days after application
Summary of the method: as §1

[9] = tested on: sicklepod (Cassia obtusifolia, CASOB); assay: as above; conditions: rating scale 0-100, 14 days after application
Summary of the method: as §1

[10] = tested on: lambsquarters (Chenopodium album, CHEAL); assay: as above; conditions: rating scale 0-100, 14 days after application
Summary of the method: as §1

[11] = tested on: johnsongrass (Sorghum halepense, SORHA); assay: as above; conditions: rating scale 0-100, 14 days after application
Summary of the method: as §1

[12] = tested on: common ragweed (Ambrosia artemisizfolia L., AMBEL); assay: as above; conditions: rating scale 0-100, 14 days after application
Summary of the method: as §1

[13] = tested on: large crabgrass (Digitaria sanguinalis, DIGSA); assay: as above; conditions: rating scale 0-100, 14 days after application
Summary of the method: as §1

[14] = tested on: barnyardgrass (Echinochloa crus-galli, ECHCG); assay: as above; conditions: rating scale 0-100, 14 days after application
Summary of the method: as §1

[15] = tested on: velvetleaf (Abutilon theophrasti, ABUTH); assay: Post-emerge test, greenhouse herbicide activity screening; conditions: rating scale 0-100 (0 no damage, 100 complete death), 14 days after application
Summary of the method: (§3)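 Compounds in acetone were track-sprayed at 15–1000 g ai/ha: pre-emergence onto soil sown the previous day, then top-watered to incorporate and later bottom-watered; post-emergence onto 2–3 leaf plants with 0.25% v/v surfactant, bottom-watered only. Ratings on a 0–100 phytotoxicity scale were taken at day 14.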

[16] = tested on: redroot pigweed (Amaranthus retroflexus, AMARE); assay: as above; conditions: rating scale 0-100 (0 no damage, 100 complete death), 14 days after application
Summary of the method: as §3

[17] = tested on: ivyleaf morningglory (Ipomoea hederacea, IPOHE); assay: as above; conditions: rating scale 0-100 (0 no damage, 100 complete death), 14 days after application
Summary of the method: as §3

[18] = tested on: green foxtail (Setaria viridis, SETVI); assay: as above; conditions: rating scale 0-100 (0 no damage, 100 complete death), 14 days after application
Summary of the method: as §3

[19] = tested on: sicklepod (Cassia obtusifolia, CASOB); assay: as above; conditions: rating scale 0-100 (0 no damage, 100 complete death), 14 days after application
Summary of the method: as §3

[20] = tested on: lambsquarters (Chenopodium album, CHEAL); assay: as above; conditions: rating scale 0-100 (0 no damage, 100 complete death), 14 days after application
Summary of the method: as §3

[21] = tested on: johnsongrass (Sorghum halepense, SORHA); assay: as above; conditions: rating scale 0-100 (0 no damage, 100 complete death), 14 days after application
Summary of the method: as §3

[22] = tested on: common ragweed (Ambrosia artemisizfolia L., AMBEL); assay: as above; conditions: rating scale 0-100 (0 no damage, 100 complete death), 14 days after application
Summary of the method: as §3

[23] = tested on: large crabgrass (Digitaria sanguinalis, DIGSA); assay: as above; conditions: rating scale 0-100 (0 no damage, 100 complete death), 14 days after application
Summary of the method: as §3

[24] = tested on: barnyardgrass (Echinochloa crus-galli, ECHCG); assay: as above; conditions: rating scale 0-100 (0 no damage, 100 complete death), 14 days after application
Summary of the method: as §3

## COc1c(Cl)cc(F)c(-n2c(=O)cc(C(F)(F)F)n(C)c2=O)c1CC(C)(Cl)C(=O)OCC(C)C (stereo not drawn) [14-40]
[1]; 63 g ai/ha
  Pre-emerge herbicidal activity, phytotoxicity rating AMARE: 100
[1]; 250 g ai/ha
  Pre-emerge herbicidal activity, phytotoxicity rating AMARE: 100
[2]; Rate 63 g ai/ha
  Post-emerge phytotoxicity rating RICE (crop damage): 15
[2]; Rate 250 g ai/ha
  Post-emerge phytotoxicity rating RICE (crop damage): 75
[3]; Rate 63 g ai/ha
  Post-emerge phytotoxicity rating CORN (crop damage): 35
[3]; Rate 250 g ai/ha
  Post-emerge phytotoxicity rating CORN (crop damage): 70
[4]; 63 g ai/ha
  Pre-emerge phytotoxicity rating, crop damage RICE: 20
[4]; 250 g ai/ha
  Pre-emerge phytotoxicity rating, crop damage RICE: 60
[5]; 63 g ai/ha
  Pre-emerge phytotoxicity rating, crop damage CORN: 0
[5]; 250 g ai/ha
  Pre-emerge phytotoxicity rating, crop damage CORN: 0
[6]; 63 g ai/ha
  Pre-emerge herbicidal activity, phytotoxicity rating ABUTH: 100
[6]; 250 g ai/ha
  Pre-emerge herbicidal activity, phytotoxicity rating ABUTH: 100
[7]; 63 g ai/ha
  Pre-emerge herbicidal activity, phytotoxicity rating IPOHE: 0
[7]; 250 g ai/ha
  Pre-emerge herbicidal activity, phytotoxicity rating IPOHE: 0
[8]; 63 g ai/ha
  Pre-emerge herbicidal activity, phytotoxicity rating SETVI: 50
[8]; 250 g ai/ha
  Pre-emerge herbicidal activity, phytotoxicity rating SETVI: 100
[9]; 63 g ai/ha
  Pre-emerge herbicidal activity, phytotoxicity rating CASOB: 0
[9]; 250 g ai/ha
  Pre-emerge herbicidal activity, phytotoxicity rating CASOB: 0
[10]; 63 g ai/ha
  Pre-emerge herbicidal activity, phytotoxicity rating CHEAL: 95
[10]; 250 g ai/ha
  Pre-emerge herbicidal activity, phytotoxicity rating CHEAL: 100
[11]; 63 g ai/ha
  Pre-emerge herbicidal activity, phytotoxicity rating SORHA: 0
[11]; 250 g ai/ha
  Pre-emerge herbicidal activity, phytotoxicity rating SORHA: 40
[12]; 63 g ai/ha
  Pre-emerge herbicidal activity, phytotoxicity rating AMBEL: 30
[12]; 250 g ai/ha
  Pre-emerge herbicidal activity, phytotoxicity rating AMBEL: 90
[13]; 63 g ai/ha
  Pre-emerge herbicidal activity, phytotoxicity rating DIGSA: 60
[13]; 250 g ai/ha
  Pre-emerge herbicidal activity, phytotoxicity rating DIGSA: 100
[14]; 63 g ai/ha
  Pre-emerge herbicidal activity, phytotoxicity rating ECHCG: 10
[14]; 250 g ai/ha
  Pre-emerge herbicidal activity, phytotoxicity rating ECHCG: 80
[15]; Rate 63 g ai/ha
  Post-emerge Herbicidal Activity, phytotoxicity rating ABUTH: 90
[15]; Rate 250 g ai/ha
  Post-emerge Herbicidal Activity, phytotoxicity rating ABUTH: 100
[16]; Rate 63 g ai/ha
  Post-emerge Herbicidal Activity, phytotoxicity rating AMARE: 100
[16]; Rate 250 g ai/ha
  Post-emerge Herbicidal Activity, phytotoxicity rating AMARE: 100
[17]; Rate 63 g ai/ha
  Post-emerge Herbicidal Activity, phytotoxicity rating IPOHE: 30
[17]; Rate 250 g ai/ha
  Post-emerge Herbicidal Activity, phytotoxicity rating IPOHE: 60
[18]; Rate 63 g ai/ha
  Post-emerge Herbicidal Activity, phytotoxicity rating SETVI: 85
[18]; Rate 250 g ai/ha
  Post-emerge Herbicidal Activity, phytotoxicity rating SETVI: 99
[19]; Rate 63 g ai/ha
  Post-emerge Herbicidal Activity, phytotoxicity rating CASOB: 20
[19]; Rate 250 g ai/ha
  Post-emerge Herbicidal Activity, phytotoxicity rating CASOB: 60
[20]; Rate 63 g ai/ha
  Post-emerge Herbicidal Activity, phytotoxicity rating CHEAL: 100
[20]; Rate 250 g ai/ha
  Post-emerge Herbicidal Activity, phytotoxicity rating CHEAL: 100
[21]; Rate 63 g ai/ha
  Post-emerge Herbicidal Activity, phytotoxicity rating SORHA: 20
[21]; Rate 250 g ai/ha
  Post-emerge Herbicidal Activity, phytotoxicity rating SORHA: 20
[22]; Rate 63 g ai/ha
  Post-emerge Herbicidal Activity, phytotoxicity rating AMBEL: 90
[22]; Rate 250 g ai/ha
  Post-emerge Herbicidal Activity, phytotoxicity rating AMBEL: 100
[23]; Rate 63 g ai/ha
  Post-emerge Herbicidal Activity, phytotoxicity rating DIGSA: 20
[23]; Rate 250 g ai/ha
  Post-emerge Herbicidal Activity, phytotoxicity rating DIGSA: 40
[24]; Rate 63 g ai/ha
  Post-emerge Herbicidal Activity, phytotoxicity rating ECHCG: 100
[24]; Rate 250 g ai/ha
  Post-emerge Herbicidal Activity, phytotoxicity rating ECHCG: 100
